Molecular target: human NEP (Homo sapiens (Human), UniProt P08473)
Assay: In vitro enzyme inhibition assay at human NEP
Settings: recombinant human NEP, fluorogenic peptide substrate, 37° C.; for Ki: pKi

Chain of human NEP (P08473 52-750): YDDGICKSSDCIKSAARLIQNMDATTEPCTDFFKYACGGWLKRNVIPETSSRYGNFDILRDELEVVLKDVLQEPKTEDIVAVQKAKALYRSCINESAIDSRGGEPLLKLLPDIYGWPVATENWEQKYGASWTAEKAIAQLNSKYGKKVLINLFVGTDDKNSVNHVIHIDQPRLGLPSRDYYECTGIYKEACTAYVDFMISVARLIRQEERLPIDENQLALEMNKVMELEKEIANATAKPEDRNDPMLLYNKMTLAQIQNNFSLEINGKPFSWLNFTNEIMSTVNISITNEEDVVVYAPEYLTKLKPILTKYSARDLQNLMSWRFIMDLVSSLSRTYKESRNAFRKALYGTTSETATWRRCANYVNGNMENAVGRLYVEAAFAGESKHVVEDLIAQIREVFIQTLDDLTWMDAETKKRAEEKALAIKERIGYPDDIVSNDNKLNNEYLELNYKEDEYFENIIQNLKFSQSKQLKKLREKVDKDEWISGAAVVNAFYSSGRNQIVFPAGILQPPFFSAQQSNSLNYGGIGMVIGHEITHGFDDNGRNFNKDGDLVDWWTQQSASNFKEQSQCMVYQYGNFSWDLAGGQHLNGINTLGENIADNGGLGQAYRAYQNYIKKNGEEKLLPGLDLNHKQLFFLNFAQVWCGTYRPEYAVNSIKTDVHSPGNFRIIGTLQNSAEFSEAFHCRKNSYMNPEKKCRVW

Row | SMILES | pKi | Ki
1 | CCc1cc(C(=O)N[C@H](Cc2ccc(-c3cc(Cl)ccc3F)cc2Cl)C[C@H](N)C(=O)O)on1 [Example 18-6, (2S,4R)-2-Amino-5-(3,5′-dichloro-2′-fluorobiphenyl-4-yl)-4-[(3-ethylisoxazole-5-carbonyl)amino]pentanoic acid] | ≧9.0 | 
2 | CNC(=O)c1cc(C(=O)N[C@H](Cc2ccc(-c3cc(Cl)ccc3F)cc2)C[C@@H](N)C(=O)O)[nH]n1 [Example 16-21, (2R,4R)-2-Amino-5-(5′-chloro-2′-fluorobiphenyl-4-yl)-4-[(5-methylcarbamoyl-2H-pyrazole-3-carbonyl)amino]pentanoic acid] | ≧9.0 | 
3 | COCc1cc(C(=O)N[C@H](Cc2ccc(-c3cc(Cl)ccc3F)cc2Cl)C[C@H](N)C(=O)O)no1 [Example 18-8, (2S,4R)-2-Amino-5-(3,5′-dichloro-2′-fluorobiphenyl-4-yl)-4-[(5-methoxymethylisoxazole-3-carbonyl)amino]pentanoic acid] | ≧9.0 | 
4 | COC[C@H](C[C@@H](Cc1ccc(-c2cc(Cl)ccc2F)cc1)NC(=O)c1c[nH]c(=O)o1)C(=O)O [Example 2-10, (2S,4S)-5-(5′-Chloro-2′-fluorobiphenyl-4-yl)-2-methoxymethyl-4-[(2-oxo-2,3-dihydro-oxazole-5-carbonyl)amino]pentanoic acid] |  | 1.26 to 3.16 nM
5 | N[C@H](C[C@@H](Cc1ccc(-c2cc(Cl)ccc2F)cc1)NC(=O)c1coc(=O)[nH]1)C(=O)O [Example 16-31, (2R,4R)-2-Amino-5-(5′-chloro-2′-fluorobiphenyl-4-yl)-4-[(2-oxo-2,3-dihydro-oxazole-4-carbonyl)amino]pentanoic acid] | ≧9.0 | 
6 | NCCC(=O)N[C@H](C[C@@H](Cc1ccc(-c2cc(Cl)ccc2F)cc1)NC(=O)c1cnn[nH]1)C(=O)O [Example 41, (2R,4R)-2-(3-Aminopropionylamino)-5-(5′-chloro-2′-fluoro-biphenyl-4-yl)-4-[(3H-[1,2,3]triazole-4-carbonyl)amino]pentanoic Acid] | ≧9.0 | 
7 | COC(=O)N[C@H](C[C@@H](Cc1ccc(-c2cc(Cl)ccc2F)cc1)NC(=O)c1cc(C(C)=O)n[nH]1)C(=O)O [Example 30-2, (2R,4R)-4-[(5-Acetyl-2H-pyrazole-3-carbonyl)-amino]-5-(5′-chloro-2′-fluoro-biphenyl-4-yl)-2-methoxycarbonylaminopentanoic acid] | ≧9.0 | 
8 | COC[C@H](C[C@@H](Cc1ccc(-c2cc(Cl)ccc2F)cc1)NC(=O)c1ccc(Cl)cn1)C(=O)O [Example 2-12, (2S,4S)-5-(5′-Chloro-2′-fluorobiphenyl-4-yl)-4-[(5-chloro-pyridine-2-carbonyl)-amino]-2-methoxymethylpentanoic acid] | ≧9.0 | 
9 | NCC(=O)N[C@H](C[C@@H](Cc1ccc(-c2cc(Cl)ccc2F)cc1)NC(=O)c1c[nH]nn1)C(=O)O [Example 33, (2R,4R)-2-(2-Aminoacetylamino)-5-(5′-chloro-2′-fluoro-biphenyl-4-yl)-4-[(1H-[1,2,3]triazole-4-carbonyl)amino]pentanoic Acid] | ≧9.0 | 
10 | N[C@H](C[C@@H](Cc1ccc(-c2cc(Cl)ccc2F)cc1)NC(=O)c1cc(-c2cnccn2)n[nH]1)C(=O)O [Example 16-33, (2R,4R)-2-Amino-5-(5′-chloro-2′-fluorobiphenyl-4-yl)-4-[(5-pyrazin-2-yl-2H-pyrazole-3-carbonyl)amino]pentanoic acid] | ≧9.0 | 
11 | COCCN[C@H](C[C@@H](Cc1ccc(-c2cc(Cl)ccc2F)cc1)NC(=O)c1c[nH]nn1)C(=O)O [Example 98a, (2R,4R)-5-(5′-Chloro-2′-fluorobiphenyl-4-yl)-2-(2-methoxyethylamino)-4-[(1H-[1,2,3]triazole-4-carbonyl)amino]pentanoic Acid] |  | ≤ 1 nM
12 | NC[C@H](C[C@@H](Cc1ccc(-c2cc(Cl)ccc2F)cc1)NC(=O)c1coc(C2CC2)n1)C(=O)O [Example 21-2, (2S,4S)-2-Aminomethyl-5-(5′-chloro-2′-fluorobiphenyl-4-yl)-4-[(2-cyclopropyl-oxazole-4-carbonyl)amino]pentanoic acid] |  | 1.26 to 3.16 nM
13 | O=C(N[C@H](Cc1ccc(-c2cc(Cl)ccc2F)cc1)C[C@@H](CN1CCOCC1)C(=O)O)c1c[nH]nn1 [Example 69a, (2S,4S)-5-(5′-Chloro-2′-fluorobiphenyl-4-yl)-2-morpholin-4-ylmethyl-4-[(1H-[1,2,3]triazole-4-carbonyl)amino]pentanoic Acid] |  | 1.26 to 3.16 nM
14 | CCCc1nc(C(=O)N[C@H](Cc2ccc(-c3cc(Cl)ccc3F)cc2)C[C@@H](N)C(=O)O)co1 [Example 16-6, (2R,4R)-2-Amino-5-(5′-chloro-2′-fluorobiphenyl-4-yl)-4-[(2-propyloxazole-4-carbonyl)-amino]pentanoic acid] |  | 3.16 to 10 nM
15 | CCOc1nc(C(=O)N[C@H](Cc2ccc(-c3cc(Cl)ccc3F)cc2)C[C@@H](NC(=O)OC)C(=O)O)co1 [Example 30-7, (2R,4R)-5-(5′-Chloro-2′-fluorobiphenyl-4-yl)-4-[(2-ethoxy-oxazole-4-carbonyl)amino]-2-methoxycarbonylaminopentanoic acid] | ≧9.0 | 
16 | CC(C)c1coc(C(=O)N[C@H](Cc2ccc(-c3cc(Cl)ccc3F)cc2)C[C@@H](NC(=O)[C@H](N)CO)C(=O)O)n1 [Example 42-1, (2R,4R)-2-((R)-2-Amino-3-hydroxypropionylamino)-5-(5′-chloro-2′-fluorobiphenyl-4-yl)-4-[(4-isopropyloxazole-2-carbonyl)-amino]pentanoic Acid] |  | 1.26 to 3.16 nM
17 | COC[C@H](C[C@@H](Cc1ccc(-c2cccc(Cl)c2)cc1)NC(=O)c1noc(=O)[nH]1)C(=O)O [Example 4-3, (2S,4S)-5-(3′-Chlorobiphenyl-4-yl)-2-methoxymethyl-4-[(5-oxo-4,5-dihydro-[1,2,4]oxadiazole-3-carbonyl)amino]pentanoic acid] | ≧9.0 | 
18 | N[C@@H](C[C@@H](Cc1ccc(-c2cc(Cl)ccc2F)cc1)NC(=O)c1noc(=O)[nH]1)C(=O)O [Example 16-15, (2S,4R)-2-Amino-5-(5′-chloro-2′-fluorobiphenyl-4-yl)-4-[(5-oxo-4,5-dihydro-[1,2,4]oxadiazole-3-carbonyl)amino]pentanoic acid] |  | 3.16 to 10 nM
19 | CCOC[C@H](C[C@@H](Cc1ccc(-c2cc(Cl)ccc2F)cc1)NC(=O)c1cocn1)C(=O)O [Example 7-7, (2S,4S)-5-(5′-Chloro-2′-fluorobiphenyl-4-yl)-2-ethoxymethyl-4-[(oxazole-4-carbonyl)amino]pentanoic acid] |  | 1.26 to 3.16 nM
20 | O=C(N[C@H](Cc1ccc(-c2cc(Cl)ccc2F)cc1)C[C@@H](CNCCCO)C(=O)O)c1cnn[nH]1 [Example 87b, (2S,4S)-5-(5′-Chloro-2′-fluorobiphenyl-4-yl)-2-[(3-hydroxypropylamino)methyl]-4-[(3H-[1,2,3]triazole-4-carbonyl)amino]pentanoic Acid] |  | ≤ 1 nM
21 | O=C(N[C@H](Cc1ccc(-c2cc(Cl)ccc2F)cc1)CC(C(=O)O)c1cccs1)c1cnn[nH]1 (stereo in doubt) [Example 78, (S)-5-(5′-Chloro-2′-fluorobiphenyl-4-yl)-2-thiophen-2-yl-4-[(3H-[1,2,3]triazole-4-carbonyl)amino]pentanoic Acid] |  | 1.26 to 3.16 nM
22 | COC1CN(C[C@H](C[C@@H](Cc2ccc(-c3cc(Cl)ccc3F)cc2)NC(=O)c2c[nH]nn2)C(=O)O)C1 [Example 102b, (2S,4S)-5-(5′-Chloro-2′-fluorobiphenyl-4-yl)-2-(3-methoxyazetidin-1-ylmethyl)-4-[(1H-[1,2,3]triazole-4-carbonyl)amino]pentanoic Acid] |  | ≤ 1 nM
23 | COC[C@H]1CCN1C[C@H](C[C@@H](Cc1ccc(-c2cc(Cl)ccc2F)cc1)NC(=O)c1c[nH]nn1)C(=O)O [Example 103b, (2S,4S)-5-(5′-Chloro-2′-fluorobiphenyl-4-yl)-2-((R)-2-methoxymethylazetidin-1-ylmethyl)-4-[(3H-[1,2,3]triazole-4-carbonyl)amino]pentanoic Acid] |  | ≤ 1 nM
24 | N#CC[C@H](C[C@@H](Cc1ccc(-c2ccccc2)cc1)NC(=O)c1cnn[nH]1)C(=O)O [Example 50, (2S,4S)-5-Biphenyl-4-yl-2-cyanomethyl-4-[(3H-[1,2,3]triazole-4-carbonyl)amino]pentanoic Acid] | ≧9.0 | 
25 | COC(=O)N[C@H](C[C@@H](Cc1ccc(-c2cc(Cl)ccc2F)cc1)NC(=O)c1noc(=O)[nH]1)C(=O)O [Example 30-9, (2R,4R)-5-(5′-Chloro-2′-fluorobiphenyl-4-yl)-2-methoxycarbonylamino-4-[(5-oxo-4,5-dihydro-[1,2,4]oxadiazole-3-carbonyl)amino]pentanoic acid] | ≧9.0 | 
26 | O=C(N[C@H](Cc1ccc(-c2ccccc2)cc1)C[C@@H](COCCO)C(=O)O)c1c[nH]nn1 [Example 11, (2S,4S)-5-Biphenyl-4-yl-2-(2-hydroxyethoxymethyl)-4-[(1H-[1,2,3]triazole-4-carbonyl)amino]pentanoic Acid] |  | 1.26 to 3.16 nM
27 | N[C@H](C[C@@H](Cc1ccc(-c2cc(Cl)ccc2F)cc1)NC(=O)c1ncccn1)C(=O)O [Example 16-29, (2R,4R)-2-Amino-5-(5′-chloro-2′-fluorobiphenyl-4-yl)-4-[(pyrimidine-2-carbonyl)-amino]pentanoic acid] | ≧9.0 | 
28 | CC(C)c1coc(C(=O)N[C@H](Cc2ccc(-c3cc(Cl)ccc3F)cc2)C[C@@H](NC(=O)[C@@H](N)CO)C(=O)O)n1 [Example 42-2, (2R,4R)-2-((S)-2-Amino-3-hydroxypropionylamino)-5-(5′-chloro-2′-fluorobiphenyl-4-yl)-4-[(4-isopropyloxazole-2-carbonyl)amino]pentanoic Acid] |  | 1.26 to 3.16 nM
29 | CCCc1cc(C(=O)N[C@H](Cc2ccc(-c3cc(Cl)ccc3F)cc2)C[C@@H](N)C(=O)O)no1 [Example 16-2, (2R,4R)-2-Amino-5-(5′-chloro-2′-fluorobiphenyl-4-yl)-4-[(5-propylisoxazole-3-carbonyl)-amino]pentanoic acid] |  | 1.26 to 3.16 nM
30 | NCCCCCC(=O)N[C@H](C[C@@H](Cc1ccc(-c2cc(Cl)ccc2F)cc1)NC(=O)c1c[nH]nn1)C(=O)O [Example 70, (2R,4R)-2-(6-Aminohexanoylamino)-5-(5′-chloro-2′-fluorobiphenyl-4-yl)-4-[(1H-[1,2,3]triazole-4-carbonyl)amino]pentanoic Acid] | ≧9.0 | 
